In publication PMC12525580, “Impacts of Tween-20, Glycerol, and Trehalose on Hyaluronidase Activity: Insights from Microscale Thermophoresis and Capillary Electrophoresis” (Molecules, 2025):

Target: T1, hyaluronidase type I-S from bovine testes (BTH; Hyal) (Bos taurus, UniProt Q2YDK3)
T1 construct: gene SPAM1; commercial unlabeled enzyme from bovine testes
T1 sequence (Q2YDK3 36-553): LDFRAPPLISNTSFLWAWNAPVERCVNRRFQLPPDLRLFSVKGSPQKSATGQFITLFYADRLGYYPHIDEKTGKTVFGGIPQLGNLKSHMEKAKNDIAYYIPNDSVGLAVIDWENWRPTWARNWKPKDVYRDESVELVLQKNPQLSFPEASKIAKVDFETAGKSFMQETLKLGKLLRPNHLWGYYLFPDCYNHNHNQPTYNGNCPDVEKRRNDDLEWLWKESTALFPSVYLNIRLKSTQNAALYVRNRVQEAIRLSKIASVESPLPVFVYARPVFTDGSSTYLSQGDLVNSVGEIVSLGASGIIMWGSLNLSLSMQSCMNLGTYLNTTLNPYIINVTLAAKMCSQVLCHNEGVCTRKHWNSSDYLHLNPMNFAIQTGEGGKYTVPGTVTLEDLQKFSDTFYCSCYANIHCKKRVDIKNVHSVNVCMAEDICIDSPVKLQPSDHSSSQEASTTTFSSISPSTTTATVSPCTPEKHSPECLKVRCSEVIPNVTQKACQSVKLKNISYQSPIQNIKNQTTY
Assay: CE-UV enzymatic assay of hyaluronic acid degradation; inhibition at […] without trehalose ([…] with […] trehalose)
Format: biochemical
Settings: read-out: Inhibition at 1 mg/mL-Equation (1) / 0% Trehalose

- inhibition at 1000 µg/mL: 25 ± 5%
SMILES: O=c1cc(-c2ccc(O)cc2)oc2cc(O[C@@H]3O[C@H](CO)[C@@H](O)[C@H](O)[C@H]3O)cc(O)c12 [apigenin-7-glucoside]
